Like-named read-outs stand apart in the source and are kept apart here.
Legend:
[1] = biological target: T1, human recombinant adrenergic α2A receptor (Homo sapiens, UniProt P08913); assay: Radioligand binding, adrenergic α2A ([3H]MK-912); conditions: [3H]MK-912
T1 construct: expressed in transfected cells; host or cells: insect Sf9 cells
T1 sequence (P08913 1-465): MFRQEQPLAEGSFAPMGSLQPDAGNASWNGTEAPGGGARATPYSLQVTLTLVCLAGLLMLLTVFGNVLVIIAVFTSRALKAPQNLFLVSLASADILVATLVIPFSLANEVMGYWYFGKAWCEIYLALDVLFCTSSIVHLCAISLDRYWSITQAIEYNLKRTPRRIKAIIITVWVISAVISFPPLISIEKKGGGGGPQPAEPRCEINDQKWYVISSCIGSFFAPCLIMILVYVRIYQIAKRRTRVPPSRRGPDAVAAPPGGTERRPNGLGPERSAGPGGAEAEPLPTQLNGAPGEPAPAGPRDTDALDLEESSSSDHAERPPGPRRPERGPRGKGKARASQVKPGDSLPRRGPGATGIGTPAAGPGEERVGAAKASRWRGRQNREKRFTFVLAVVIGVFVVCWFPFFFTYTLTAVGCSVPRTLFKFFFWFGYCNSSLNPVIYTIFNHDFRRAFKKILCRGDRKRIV
How it was run: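 Receptor expressed in insect Sf9 cells, assayed in 50 mM Tris-HCl pH 7.4 with 12.5 mM MgCl2 and 2 mM EDTA. Compounds incubated with 1 nM [3H]MK-912 for 60 min at 25 °C; nonspecific binding defined with 10 μM WB-4101. Filter-bound radioactivity counted; values are percent inhibition of specific binding.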

[2] = biological target: T2, human recombinant adrenergic α1D receptor (Homo sapiens, UniProt P25100); assay: Radioligand binding, adrenergic α1D ([3H]Prazosin); conditions: for Percentage inhibition of ligand binding, Adrenergic α1D (0.1 μM): repeat datapoints each shown
T2 construct: expressed in transfected cells; host or cells: HEK-293
T2 sequence (P25100 1-572): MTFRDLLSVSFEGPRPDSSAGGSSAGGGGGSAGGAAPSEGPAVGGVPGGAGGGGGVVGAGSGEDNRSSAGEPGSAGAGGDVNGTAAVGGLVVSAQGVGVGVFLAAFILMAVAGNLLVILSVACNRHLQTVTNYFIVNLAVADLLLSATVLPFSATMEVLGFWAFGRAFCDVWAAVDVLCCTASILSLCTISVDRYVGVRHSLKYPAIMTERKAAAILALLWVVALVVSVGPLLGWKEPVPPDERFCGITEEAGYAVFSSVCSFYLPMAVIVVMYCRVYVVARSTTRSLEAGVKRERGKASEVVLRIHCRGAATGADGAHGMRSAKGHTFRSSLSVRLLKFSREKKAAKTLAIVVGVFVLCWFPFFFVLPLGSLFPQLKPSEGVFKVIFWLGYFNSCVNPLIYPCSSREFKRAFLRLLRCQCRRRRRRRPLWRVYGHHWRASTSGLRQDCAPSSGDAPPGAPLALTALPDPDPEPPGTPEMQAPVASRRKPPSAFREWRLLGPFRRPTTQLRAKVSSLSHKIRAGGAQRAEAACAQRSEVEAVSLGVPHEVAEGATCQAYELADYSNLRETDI
Procedure: Compounds were incubated with 0.6 nM [^3H]Prazosin for 60 min at 25° C. Non-specific binding was estimated in the presence of 10 μM phentolamine. Receptor proteins were filtered and washed, the filters were then counted to determine [^3H]Prazosin specifically bound. […] Biochemical assay results are presented as the percent inhibition of specific binding in Table B1.

[3] = biological target: T3, rat adrenergic α1B receptor (Rattus norvegicus, UniProt P15823); assay: Radioligand binding, adrenergic α1B ([3H]Prazosin); parameters: species or system Wistar Rat; conditions: for Percentage inhibition of ligand binding, Adrenergic α1B (0.1 μM): repeat datapoints each shown
T3 construct: rat adrenergic α1B receptor obtained from Wistar Rat liver; from tissue; host or cells: Wistar rat liver
T3 sequence (P15823 1-515): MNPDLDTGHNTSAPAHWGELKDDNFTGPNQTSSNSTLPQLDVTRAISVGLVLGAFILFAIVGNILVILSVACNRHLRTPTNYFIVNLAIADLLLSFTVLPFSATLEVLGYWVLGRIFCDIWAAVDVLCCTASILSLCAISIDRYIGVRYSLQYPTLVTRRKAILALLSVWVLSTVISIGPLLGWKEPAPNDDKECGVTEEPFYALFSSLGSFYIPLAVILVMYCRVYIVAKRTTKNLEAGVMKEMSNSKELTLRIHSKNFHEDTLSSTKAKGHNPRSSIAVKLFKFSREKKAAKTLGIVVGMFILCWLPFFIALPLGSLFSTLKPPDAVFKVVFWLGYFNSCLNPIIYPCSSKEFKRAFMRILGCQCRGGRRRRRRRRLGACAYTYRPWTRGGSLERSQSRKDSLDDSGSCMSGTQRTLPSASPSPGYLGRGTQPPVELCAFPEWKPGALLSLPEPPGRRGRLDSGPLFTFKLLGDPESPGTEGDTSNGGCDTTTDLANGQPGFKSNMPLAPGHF
How it was run: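 Filter binding with Wistar rat liver α1B preparation: test compound plus 0.25 nM [3H]prazosin, 1 h at 25° C in modified Tris-HCl buffer pH 7.4.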

[4] = biological target: T4, human recombinant adrenergic α2B receptor (Homo sapiens, UniProt P18089); assay: Radioligand binding, adrenergic α2B ([3H]Rauwolscine); conditions: for Percentage inhibition of ligand binding, Adrenergic α2B (0.1 μM): repeat datapoints each shown
T4 construct: expressed in transfected cells; host or cells: CHO-K1
T4 sequence (P18089 1-450): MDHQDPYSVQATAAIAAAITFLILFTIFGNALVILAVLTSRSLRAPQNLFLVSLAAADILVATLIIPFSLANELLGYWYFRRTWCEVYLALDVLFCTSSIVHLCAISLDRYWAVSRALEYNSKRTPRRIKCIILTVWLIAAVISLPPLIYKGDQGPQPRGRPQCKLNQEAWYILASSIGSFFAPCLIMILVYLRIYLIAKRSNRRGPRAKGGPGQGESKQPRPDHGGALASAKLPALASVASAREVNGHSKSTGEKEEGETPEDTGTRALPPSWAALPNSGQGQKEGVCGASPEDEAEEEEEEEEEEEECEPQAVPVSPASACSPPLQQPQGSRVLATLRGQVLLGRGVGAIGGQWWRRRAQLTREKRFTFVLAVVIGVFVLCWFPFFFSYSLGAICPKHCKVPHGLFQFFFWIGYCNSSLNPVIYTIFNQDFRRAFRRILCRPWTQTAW
How it was run: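 Membranes from CHO-K1 cells expressing human recombinant α2B, in 50 mM Tris-HCl pH 7.4, 12.5 mM MgCl2, 1 mM EDTA, 0.2% BSA, incubated with compound and 2.5 nM [3H]Rauwolscine, 60 min, 25 °C.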

[5] = compound at 0.1 μM, repeat datapoints each shown

Structure (SMILES): CCCCC(O)(Cn1c2c(c3cc(Cl)ccc31)CN(C)CC2)c1ccc(F)cc1 (single isomer, unassigned) [33b]
- Percentage inhibition of ligand binding, Adrenergic α2A (0.1 μM) [1, 5]: −7%
- Percentage inhibition of ligand binding, Adrenergic α1D (0.1 μM) ([2]; compound at 0.1 μM, 0.1 µM): 14%
- Percentage inhibition of ligand binding, Adrenergic α1B (0.1 μM) ([3]; compound at 0.1 μM, 0.1 µM): 0%
- Percentage inhibition of ligand binding, Adrenergic α2B (0.1 μM) ([4]; compound at 0.1 μM, 0.1 µM): 2%

Structure (SMILES): CCC(O)(Cn1c2c(c3cc(C)ccc31)CN(C)CC2)c1ccc(F)cc1 (single isomer, unassigned) [34b]
- Percentage inhibition of ligand binding, Adrenergic α2A (0.1 μM) ([1]; compound at 0.1 μM, repeat datapoints each shown, 0.1 µM): 3%
- Percentage inhibition of ligand binding, Adrenergic α1D (0.1 μM) ([2]; compound at 0.1 μM, 0.1 µM): 13%
- Percentage inhibition of ligand binding, Adrenergic α1B (0.1 μM) ([3]; compound at 0.1 μM, 0.1 µM): −2%
- Percentage inhibition of ligand binding, Adrenergic α2B (0.1 μM) ([4]; compound at 0.1 μM, 0.1 µM): 1%

Structure (SMILES): CCC(O)(Cn1c2c(c3cc(C)ccc31)CN(C)CC2)c1ccncc1 (stereo not shown) [35a]
- Percentage inhibition of ligand binding, Adrenergic α2A (0.1 μM) [1, 5]: 20%
- Percentage inhibition of ligand binding, Adrenergic α1D (0.1 μM) ([2]; compound at 0.1 μM): 6%
- Percentage inhibition of ligand binding, Adrenergic α1B (0.1 μM) ([3]; compound at 0.1 μM): 9%
- Percentage inhibition of ligand binding, Adrenergic α2B (0.1 μM) ([4]; compound at 0.1 μM): 62%

Structure (SMILES): CCCCC(O)(Cn1c2c(c3cc(Cl)ccc31)CN(C)CC2)c1ccc(F)cc1 (single isomer, unassigned) [33a]
- Percentage inhibition of ligand binding, Adrenergic α1D (0.1 μM) ([2]; compound at 0.1 μM, 0.1 µM): 23%
- Percentage inhibition of ligand binding, Adrenergic α1B (0.1 μM) ([3]; compound at 0.1 μM, 0.1 µM): −2%
- Percentage inhibition of ligand binding, Adrenergic α2B (0.1 μM) ([4]; compound at 0.1 μM, 0.1 µM): −3%

Structure (SMILES): Cc1ccc2c(c1)c1c(n2CCc2sccc2C)CCN(C)C1 [compound 308]
- inhibition at 0.1 µM ([1]; compound at 0.1 μM, read-out: Percentage inhibition of ligand binding, Adrenergic α2A): 86%
- inhibition at 0.1 µM ([2]; compound at 0.1 μM, read-out: Percentage inhibition of ligand binding, Adrenergic α1D): 56%
- inhibition at 0.1 µM ([3]; compound at 0.1 μM, read-out: Percentage inhibition of ligand binding, Adrenergic α1B): 79%
- inhibition at 0.1 µM ([4]; compound at 0.1 μM, read-out: Percentage inhibition of ligand binding, Adrenergic α2B): 97%

Structure (SMILES): CCC(O)(Cn1c2c(c3cc(C)ccc31)CN(C)CC2)c1ccc(F)cc1 (stereo not shown) [compound 34]
- inhibition at 0.1 µM ([1]; read-out: Percentage inhibition of ligand binding, Adrenergic α2A (0.1 μM), compound at 0.1 μM, repeat datapoints each shown): 28%
- inhibition at 0.1 µM ([2]; read-out: Percentage inhibition of ligand binding, Adrenergic α1D (0.1 μM), compound at 0.1 μM, repeat datapoints each shown): 2%
- inhibition at 0.1 µM ([3]; read-out: Percentage inhibition of ligand binding, Adrenergic α1B (0.1 μM), compound at 0.1 μM, repeat datapoints each shown): 30%
- inhibition at 0.1 µM ([4]; read-out: Percentage inhibition of ligand binding, Adrenergic α2B (0.1 μM), compound at 0.1 μM, repeat datapoints each shown): 38%

Structure (SMILES): Cc1ccc2c(c1)c1c(n2CC(C)c2ccc(C)nc2)CCN(C)C1 (single isomer, unassigned) [289b]
- Percentage inhibition of ligand binding, Adrenergic α2A ([1]; compound at 0.1 μM, 0.1 µM): 53%
- Percentage inhibition of ligand binding, Adrenergic α1D ([2]; compound at 0.1 μM, 0.1 µM): −2%
- Percentage inhibition of ligand binding, Adrenergic α1B ([3]; compound at 0.1 μM, 0.1 µM): 12%
- Percentage inhibition of ligand binding, Adrenergic α2B ([4]; compound at 0.1 μM): 54%

Structure (SMILES): CC(Cn1c2c(c3ccccc31)CN(C)CC2)c1ccc(F)cc1 (single isomer, unassigned) [272a]
- Percentage inhibition of ligand binding, Adrenergic α2A ([1]; compound at 0.1 μM, 0.1 µM): 33%
- Percentage inhibition of ligand binding, Adrenergic α1D ([2]; compound at 0.1 μM, 0.1 µM): 12%
- Percentage inhibition of ligand binding, Adrenergic α1B ([3]; compound at 0.1 μM, 0.1 µM): 27%
- Percentage inhibition of ligand binding, Adrenergic α2B ([4]; compound at 0.1 μM): −10%

Reference: US9550782B2, “Compounds and methods for treating diabetes” (Medivation Technologies, Inc., priority 2011, dated 2017)
